Drawing on patent US20260055097A9, “NRF2 PROTEIN DEGRADERS” (Ganymede Oncology, Inc., priority 2022, published 2026), this text covers IC50 and DC50 for nine compounds.

A value given as a limit tells only on which side of the number the result lay.

Holding throughout (format): cell-based
For one experiment, the system named is LK-2. The experiment in a line: Cancer cell viability, LK-2 (CellTiter-Glo). Conditions: Homo sapiens, LK-2, 72 h, LK-2 cells, 3 days, read-out: Cellular IC50 (μM) LK-2. How it is done: Representative Compounds of the Disclosure were tested in A549 (Vendor: ATCC; Cat #CCL-185; Description: lung, carcinoma) and/or LK-2 (Vendor: Riken; Cat #RCB1970; Description: lung, squamous cell carcinoma) cellular viability assays according to the following general protocol. • 1. Observed the cells under microscope. • 2. Aspirated the media and added 5 mL trypsin and incubate for 3 mins. • 3. Added 10 mL fresh media and harvested all the cells in to 15 mL tubes. • 4. Centrifuged the cells at 1000 rpm for 5 mins. • 5. Re-suspended the cells with 11 mL media and took 1 mL to determine the cell number and viability. • 6. Prepared cells suspension at 20 K/mL (A549) or 35 K/mL (LK-2) • 7. Seeded the cells into 96-well plate and incubated for overnight. • 8. Added compounds into each well with a HPD300 machine (nine three-fold dilutions typically starting at 30 µM final concentration) and incubated for 3 days. • 9. After 3 days, took out the plates from the incubator and observed the cells under microscope. • 10. Passed a film at the bottom of the plates. • 11. Equilibrated the plate and its contents at room temperature for approximately 30 minutes. • 12. Thawed the CellTiter-Glo® Buffer and equilibrated to room temperature prior to use. • 13. Equilibrated the lyophilized CellTiter-Glo® Substrate to room temperature prior to use. • 14. Transferred 100 ml of CellTiter-Glo® Buffer into the amber bottle containing CellTiter-Glo® Substrate to reconstituted the lyophilized enzyme/substrate mixture. • 15. Mixed by gently vortexing, swirling or inverting the contents to obtain a homogeneous solution. • 16. Added 100 μL CellTiter-Glo® Reagent into each well • 17. Mixed contents for 15 minutes on an orbital shaker to induce cell lysis. • 18. Recorded luminescence with EnSpire machine. • 19. Passed the raw data into the file and analyzed the data with XLfit software.

The target in experiment [1] is T1, Nrf2 (Homo sapiens, UniProt Q16236).
T1 sequence (Q16236 1-605): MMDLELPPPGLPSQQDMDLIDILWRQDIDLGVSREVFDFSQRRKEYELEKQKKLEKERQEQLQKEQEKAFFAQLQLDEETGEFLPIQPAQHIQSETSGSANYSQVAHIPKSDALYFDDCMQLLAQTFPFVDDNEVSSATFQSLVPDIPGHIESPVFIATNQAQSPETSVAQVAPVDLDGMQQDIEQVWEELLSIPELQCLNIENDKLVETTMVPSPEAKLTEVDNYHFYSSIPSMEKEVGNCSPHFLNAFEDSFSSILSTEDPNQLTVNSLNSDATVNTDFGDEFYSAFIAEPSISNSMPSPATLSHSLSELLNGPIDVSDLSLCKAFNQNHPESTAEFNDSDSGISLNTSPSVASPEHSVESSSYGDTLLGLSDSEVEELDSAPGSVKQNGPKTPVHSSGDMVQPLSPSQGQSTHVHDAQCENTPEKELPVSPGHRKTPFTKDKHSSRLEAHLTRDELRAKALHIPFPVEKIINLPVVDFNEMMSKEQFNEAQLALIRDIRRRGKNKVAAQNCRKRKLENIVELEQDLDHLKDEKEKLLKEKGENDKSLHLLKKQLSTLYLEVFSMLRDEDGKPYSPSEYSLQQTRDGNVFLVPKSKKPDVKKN
Kind of experiment: Protein degradation assay in huH1 cells by Western blot. Details: tested for protein degradation in huH1 cells; host or cells: huH1 (Huh1) human hepatoma cells. How it is done: Representative Compounds of the Disclosure were tested for protein degradation in huH1 cells (Vendor: JCRB: Cat #JCRB0199; Description: Human hepatoma) by Western blot analysis according to the following general protocol.
Day 0: Plated the Huh1 cells into 10-cm dishes (1.5×10^6/dish)
Day 1: Treated the cells with compounds at five concentrations, e.g., 0.01 μM, 0.04 μM, 0.11 μM, 0.33 μM and 1 μM; or 0.4 μM, 1.1 μM, 3.3 μM, 10 μM, and 30 μM.
Day 4: Harvested the cell pellets, spilt 1/3 of the pellet to extract RNA by Nucleospin RNA plus kit and measure Nrf2 and GPX2 by RT-PCR, the remaining 2/3 of the pellet to run Western blot analysis.
• a) Cell samples were lysed with lysis buffer (1×Cell lysis buffer added Protease inhibitor and phosphatase inhibitor) on ice for 5˜10 min and spun at 15,000 rpm in an Eppendorf microfuge for 15 min at 4° C. • b) The protein supernatant was collected in a new 1.5 ml tube and the protein concentrations were determined by the Pierce BCA kit (Thermo #23225). • c) Mixed protein sample with 5×SDS-PAGE loading buffer. • d) Boiled for 5 min. • e) Cooled at RT or on ice for 5 min. • f) Flash spun to bring down condensation prior to loading gel.
• a) After flash spinning the samples, 20 μg protein were loaded into the wells. • b) Using SDS-PAGE running buffer. • c) Run with Constant Voltage (70 V) for 1.5-2 hr. Membrane transfer • a) Assembled “sandwich” for Invitrogen iBlot. • b) Transferred for 9 min using P0 program. • c) Immersed membrane in Odyssey blocking buffer or 5% BSA for at least 1 hr.
• a) Incubated with 1st Antibody 1:500 diluted in blocking buffer overnight at 4° C. • b) Washed 4×15 min with 0.05-0.1% Tween 20 in TBS. • c) Incubated with secondary antibody 1:10K diluted in blocking buffer for at least 1 hr at RT. • d) Washed 3×15 min with 0.05-0.1% Tween 20 in TBS. • e) Detected with ODYSSEY (Li—COR) The results are provided in Table 5.

The test system of another experiment is A549. Kind of experiment: Cancer cell viability, A549 (CellTiter-Glo). To be noted: Homo sapiens, 72 h, A549 cells, 3 days, read-out: Cellular IC50 (μM) A549. An outline of the steps:
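A549 and/or LK-2 lung carcinoma cells seeded overnight (20 K/mL A549; 35 K/mL LK-2), then exposed to compound for 3 days. Viability read as CellTiter-Glo luminescence after 15 min lysis; data fitted to curves.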
In general terms: Cellular ATP, detected with luciferase, serves as a proxy for viable cell number.

Experiment [2] has as its target T1, Nrf2. The experiment in a line: Nrf2 degradation in A549 HiBiT-Nrf2 cells, Nano-Glo HiBiT lytic detection (HiBiT readout). Details: host or cells: A549 HiBiT-Nrf2 cells (engineered line bought from Promega). The procedure, abridged: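 A549 HiBiT-Nrf2 cells seeded at 5,000 cells/well in Ham's F-12 with 10% FBS, then treated next day for 6 h and 20 h at 37 °C, 5% CO2. Nrf2 degradation read by Nano-Glo HiBiT lytic luminescence after 30 min at room temperature; staurosporine served as control.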
In general terms: HiBiT is a short tag that completes a luciferase, so light tracks the accessible tagged protein.

Setting [3] is: X marks the class 0.1-1 μM, read-out: DC50 huHI1 cells 0.1-1 μM.
Where [4] appears, read: X marks the class >10 μM, read-out: DC50 huHI1 cells >10 μM.

`Cc1ccccc1C(=O)N1CCc2cc(-c3nc(NC(=O)Cc4cccc(OCCOCCNc5cccc6c5C(=O)N(C5CCC(=O)NC5=O)C6=O)c4)sc3C)ccc21` (stereo not shown) [Cpd. No. 1, 2-(3-(2-(2-((2-(2,6-dioxopiperidin-3-yl)-1,3-dioxoisoindolin-4-yl)amino)ethoxy)ethoxy)phenyl)-N-(5-methyl-4-(1-(2-methylbenzoyl)indolin-5-yl)thiazol-2-yl)acetamide]: the figures for the IC50 with LK-2 and in the experiment on A549 were 0.04 µM and 0.1 µM, respectively. Moreover, the DC50 on Nrf2 [1] (setting [3]) fell in the range of 100 to 1000 nM.
For `Cc1ccccc1C(=O)N1CCc2cc(-c3nc(NC(=O)Cc4cccc(OCCOCCOCCNc5cccc6c5C(=O)N(C5CCC(=O)NC5=O)C6=O)c4)sc3C)ccc21` (stereo not shown) [Cpd. No. 2, 2-(3-(2-(2-(2-((2-(2,6-dioxopiperidin-3-yl)-1,3-dioxoisoindolin-4-yl)amino)ethoxy)ethoxy)ethoxy)phenyl)-N-(5-methyl-4-(1-(2-methylbenzoyl)indolin-5-yl)thiazol-2-yl)acetamide], the DC50 at Nrf2 [1] (setting [4]) was > 10000 nM. For the same compound, in the experiment on A549, the IC50 is > 30 µM.
With `Cc1ccccc1C(=O)N1CCc2cc(-c3nc(NC(=O)Cc4cccc(OCCOCCOCCOCCNc5cccc6c5C(=O)N(C5CCC(=O)NC5=O)C6=O)c4)sc3C)ccc21` (stereo not shown) [Cpd. No. 3, 2-(3-(2-(2-(2-(2-((2-(2,6-dioxopiperidin-3-yl)-1,3-dioxoisoindolin-4-yl)amino)ethoxy)ethoxy)ethoxy)ethoxy)phenyl)-N-(5-methyl-4-(1-(2-methylbenzoyl)indolin-5-yl)thiazol-2-yl)acetamide], the DC50 at Nrf2 [1] (setting [4]) is > 10000 nM.
Consider `Cc1ccccc1C(=O)N1CCc2cc(-c3nc(NC(=O)Cc4cccc(OCCOCCOCCOCCOCCNc5cccc6c5C(=O)N(C5CCC(=O)NC5=O)C6=O)c4)sc3C)ccc21` (stereo not shown) [Cpd. No. 4, 2-(3-((14-((2-(2,6-dioxopiperidin-3-yl)-1,3-dioxoisoindolin-4-yl)amino)-3,6,9,12-tetraoxatetradecyl)oxy)phenyl)-N-(5-methyl-4-(1-(2-methylbenzoyl)indolin-5-yl)thiazol-2-yl)acetamide], for which, at Nrf2 [1] (setting [4]), the DC50 is > 10000 nM.
The same measure, in the same setting: next, `Cc1ccccc1C(=O)N1CCc2cc(-c3nc(NC(=O)Cc4cccc(OCCOCCOCCOCCOCCOCCNc5cccc6c5C(=O)N(C5CCC(=O)NC5=O)C6=O)c4)sc3C)ccc21` (stereo not shown) [Cpd. No. 5, 2-(3-((17-((2-(2,6-dioxopiperidin-3-yl)-1,3-dioxoisoindolin-4-yl)amino)-3,6,9,12,15-pentaoxaheptadecyl)oxy)phenyl)-N-(5-methyl-4-(1-(2-methylbenzoyl)indolin-5-yl)thiazol-2-yl)acetamide]: > 10000 nM.
For `Cc1ccccc1C(=O)N1CCc2cc(-c3nc(NC(=O)Cc4cccc(OCCOCCOCCOc5cccc6c5C(=O)N(C5CCC(=O)NC5=O)C6=O)c4)sc3C)ccc21` (stereo not shown) [Cpd. No. 7, 2-(3-(2-(2-(2-((2-(2,6-dioxopiperidin-3-yl)-1,3-dioxoisoindolin-4-yl)oxy)ethoxy)ethoxy)ethoxy)phenyl)-N-(5-methyl-4-(1-(2-methylbenzoyl)indolin-5-yl)thiazol-2-yl)acetamide], the 50% degradation concentration (DC50) at Nrf2 [1] (X marks the class <100 nM, read-out: DC50 huHI1 cells <100 nM) was < 100 nM.
For the compound `Cc1ccccc1C(=O)N1CCc2cc(-c3nc(NC(=O)Cc4cccc(OCCOCCOCCOCCOc5cccc6c5C(=O)N(C5CCC(=O)NC5=O)C6=O)c4)sc3C)ccc21` (stereo not shown) [Cpd. No. 8, 2-(3-(2-(2-(2-(2-((2-(2,6-dioxopiperidin-3-yl)-1,3-dioxoisoindolin-4-yl)oxy)ethoxy)ethoxy)ethoxy)ethoxy)phenyl)-N-(5-methyl-4-(1-(2-methylbenzoyl)indolin-5-yl)thiazol-2-yl)acetamide], the half-maximal degradation concentration (DC50) at Nrf2 [1] (setting [4]) was > 10000 nM.
In the case of `Cc1ccccc1C(=O)N1CCc2cc(-c3nc(NC(=O)Cc4cccc(OCCOCCOc5cccc6c5C(=O)N(C5CCC(=O)NC5=O)C6=O)c4)sc3C)ccc21` (stereo not shown) [Cpd. No. 12, 2-(3-(2-(2-((2-(2,6-dioxopiperidin-3-yl)-1,3-dioxoisoindolin-4-yl)oxy)ethoxy)ethoxy)phenyl)-N-(5-methyl-4-(1-(2-methylbenzoyl)indolin-5-yl)thiazol-2-yl)acetamide], the IC50 was 0.3 µM in the experiment on LK-2 and ~30 µM in the experiment with A549. The DC50 was > 3000 nM at Nrf2 [2] (6 h, read-out: DC50 (nM) at 6 h); > 3000 nM at Nrf2 [2] (20 h, read-out: DC50 (nM) at 20 h); 100 to 1000 nM at Nrf2 [1] (setting [3]).
As to `Cc1ccccc1C(=O)N1CCc2cc(-c3nc(NC(=O)Cc4cccc(OCCOCCOCCOCCOc5ccc6c(c5)C(=O)N(C5CCC(=O)NC5=O)C6=O)c4)sc3C)ccc21` (stereo not shown) [Cpd. No. 13, 2-(3-(2-(2-(2-(2-((2-(2,6-dioxopiperidin-3-yl)-1,3-dioxoisoindolin-5-yl)oxy)ethoxy)ethoxy)ethoxy)ethoxy)phenyl)-N-(5-methyl-4-(1-(2-methylbenzoyl)indolin-5-yl)thiazol-2-yl)acetamide], on Nrf2 [1] (setting [3]), the DC50 is 100 to 1000 nM.

By IC50 is commonly meant the midpoint of a concentration-inhibition curve. What is called DC50 is the midpoint of the concentration-degradation curve.
